Measurements from patent publication US9556460B2, “Method for the production of 3-hydroxy-3-methylbutyric acid from acetone and an activated acetyl compound” (Scientist of Fortune, S.A., priority 2009, dated 2017).

What was measured:
Format in all cases: biochemical
Details in all cases: acetyl-CoA constant 10 mM, 40 mM Tris-HCl pH 8, 2 mM MgCl2, 37° C., 40 h
[1] = molecular target: Staphylococcus epidermidis HMG-CoA synthase, Q8CN06, SEQ ID NO: 11 (Staphylococcus epidermidis, UniProt Q9FD76); assay: Kinetic parameters for the enzymatic reaction between acetyl-CoA and acetone, HMG-CoA synthase of Staphylococcus epidermidis
Experimental: (§1) Kinetic Parameters for the Enzymatic Reaction Between Acetyl-CoA and Acetone in the Case of HMG Synthases
(§2) The kinetic parameters were measured using a variable concentration of acetone and a constant concentration of acetyl-CoA (10 mM) in following conditions:
(§3) The final pH was adjusted to 8.
(§4) The reaction was initiated by the addition of 3 mg of purified enzyme to the 1 ml reaction mixture. The mixture was then incubated without shaking at 37° C. for 40 h.
(§5) Analysis of 3-hydroxy-3-methylbutyrate Production
(§6) Thermochemical conditions leading to the decomposition of 3-hydroxy-3-methylbutyrate into isobutene were applied (Pressman et al., JACS, 1940, 2069-2080): the pH of the reaction mixtures was first adjusted to pH 4 using 6N HCl and the samples were then transferred into gas chromatography vials (Interchim). The vials were sealed and incubated at 110° C. for 4 hours, thus leading to the decomposition of 3-hydroxy-3-methylbutyrate into isobutene.
(§7) The calibration curve was prepared in the same conditions using commercial 3-hydroxy-3-methylbutyrate.
(§8) One milliliter of headspace gas was collected and injected into a HP5890 gas chromatograph (HP) equipped with a FID detector and a CP SilicaPlot® column (chromatography column; Varian). Commercial isobutene was used as reference. From the isobutene signal the amount of 3-hydroxy-3-methylbutyrate initially present in the sample was calculated.

[2] = molecular target: T1, Gallus gallus (Chicken) HMG-CoA synthase, cytoplasmic, P23228, SEQ ID NO: 7 (Gallus gallus, UniProt P23228); assay: Kinetic parameters for the enzymatic reaction between acetyl-CoA and acetone, HMG-CoA synthase of Gallus gallus
T1 construct: made in house; host or cells: E. coli BL21
T1 sequence (P23228 1-522): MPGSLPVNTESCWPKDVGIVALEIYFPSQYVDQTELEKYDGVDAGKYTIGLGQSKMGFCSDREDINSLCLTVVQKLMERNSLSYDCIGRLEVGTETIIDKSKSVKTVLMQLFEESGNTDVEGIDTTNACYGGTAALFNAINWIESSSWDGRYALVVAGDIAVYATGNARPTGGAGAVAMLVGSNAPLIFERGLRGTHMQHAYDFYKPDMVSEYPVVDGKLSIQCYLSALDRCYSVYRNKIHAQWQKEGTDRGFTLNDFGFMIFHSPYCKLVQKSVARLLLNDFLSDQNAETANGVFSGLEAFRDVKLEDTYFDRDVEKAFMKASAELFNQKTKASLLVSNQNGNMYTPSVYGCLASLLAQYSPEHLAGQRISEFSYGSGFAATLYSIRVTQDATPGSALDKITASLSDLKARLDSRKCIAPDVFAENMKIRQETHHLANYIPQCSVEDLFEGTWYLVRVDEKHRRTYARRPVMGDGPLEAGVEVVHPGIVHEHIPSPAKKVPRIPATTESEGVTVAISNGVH
Experimental: as §1, §2, §3, §4, §5, §6, §7, §8

[3] = molecular target: T2, Schizosaccharomyces pombe (Fission yeast) HMG-CoA synthase, cytoplasmic, P54874, SEQ ID NO: 2 (Schizosaccharomyces pombe, UniProt P54874); assay: Kinetic parameters for the enzymatic reaction between acetyl-CoA and acetone, HMG-CoA synthase of Schizosaccharomyces pombe
T2 construct: made in house; host or cells: E. coli BL21
T2 sequence (P54874 1-447): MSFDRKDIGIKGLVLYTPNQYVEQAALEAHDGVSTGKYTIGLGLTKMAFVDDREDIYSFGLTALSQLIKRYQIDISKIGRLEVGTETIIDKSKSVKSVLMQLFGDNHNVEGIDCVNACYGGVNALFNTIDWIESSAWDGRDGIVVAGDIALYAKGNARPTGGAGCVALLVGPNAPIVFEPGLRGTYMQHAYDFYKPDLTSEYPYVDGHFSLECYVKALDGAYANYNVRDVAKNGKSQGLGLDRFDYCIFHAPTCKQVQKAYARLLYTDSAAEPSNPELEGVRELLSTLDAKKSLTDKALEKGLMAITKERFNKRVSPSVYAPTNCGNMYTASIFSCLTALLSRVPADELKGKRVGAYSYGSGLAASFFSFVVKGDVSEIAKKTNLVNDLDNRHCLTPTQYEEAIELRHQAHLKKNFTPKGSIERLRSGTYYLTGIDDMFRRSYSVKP
Experimental: as §1, §2, §3, §4, §5, §6, §7, §8

Sequence of Staphylococcus epidermidis HMG-CoA synthase, Q8CN06, SEQ ID NO: 11 (Q9FD76 entry or part of it, one chain of several): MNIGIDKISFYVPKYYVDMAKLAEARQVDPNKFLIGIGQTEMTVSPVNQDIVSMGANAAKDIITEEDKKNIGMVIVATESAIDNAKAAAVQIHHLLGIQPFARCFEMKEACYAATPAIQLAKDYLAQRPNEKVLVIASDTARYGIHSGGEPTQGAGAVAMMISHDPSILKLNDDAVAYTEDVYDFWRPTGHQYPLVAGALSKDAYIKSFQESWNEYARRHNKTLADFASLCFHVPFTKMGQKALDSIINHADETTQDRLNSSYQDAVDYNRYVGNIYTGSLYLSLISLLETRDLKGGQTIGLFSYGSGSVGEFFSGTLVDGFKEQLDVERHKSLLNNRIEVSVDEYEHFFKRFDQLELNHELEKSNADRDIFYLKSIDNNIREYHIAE

SMILES: CC(C)=O [acetone]
- kcat ([1]; 0-1 M acetone): 0.6 × 10^−4, sec^−1
- kcat/KM ([1]; acetone): 0.3 × 10^−6, mM^−1 × sec−^1
- kcat ([2]; 0-1 M acetone): 5 × 10^−4, sec^−1
- kcat/KM ([2]; acetone): 2 × 10^−6, mM^−1 × sec−^1
- kcat ([3]; 0-1 M acetone): 0.2 × 10^−4, sec^−1
- kcat/KM ([3]; acetone): 0.1 × 10^−6, mM^−1 × sec−^1
